Test system: fructosyl amino acid oxidase (FAOD-E)
Assay: Fructosyl valine detection reaction completed with excess fructosyl amino acid oxidase (Example 8)
Format: biochemical
Settings: 0.04% (w/v) compound, 21.4 U/ml FAOD-E (excess), 32 μM fructosyl valine, pH 8.0, 37° C.; for ΔA9 min: change in A694-A751 9 minutes after mixing; for ΔA10 min: change in A694-A751 10 minutes after mixing, defined as ΔA100%
Method: In this Example, the amount of change in absorbance is determined when the detection reaction of the substrate fructosyl valine was completed using an excess amount of fructosyl amino acid oxidase (FAOD-E), which is an oxidase.
A reagent for fructosyl valine measurement having the following composition was prepared, and the measurement of fructosyl valine using fructosyl amino acid oxidase was carried out using Bio Majesty JCA-BM 1650 (manufactured by JEOL Ltd.).
32 μM fructosyl valine (manufactured by Kikkoman Biochemifa Company)
30 mM MOPS-NaOH buffer solution, pH 8.0
0.2% (v/v) NYMEEN F-215 (manufactured by NOF Corp.)
10 U/ml peroxidase PEO-301 (Toyobo Co., Ltd.)
0.023 mM 10-(carboxymethylaminocarbonyl)-3,7-bis(dimethylamino)phenothiazine sodium
(DA-67, manufactured by Wako Pure Chemical Industries, Ltd.)
0.04% (w/v) of the compound of Comparative Example 2, any one compound of the present invention, or compound-free (Comparative Example 1) ion-exchange water as shown in Table 1
10 mM MOPS-NaOH buffer solution, pH 8.0
21.4 U/ml FAOD-E (manufactured by Kikkoman Biochemifa Company)
8 μl of the sample was added to 96 μl of the first reagent-C, and the mixture was incubated at 37° C. for 5 minutes. Then, 24 μl of the second reagent-E was added thereto, and the quantitative reaction of hydrogen peroxide resulting from the oxidation of fructosyl valine was allowed to progress at 37° C. for 5 minutes. The absorbance ([…] and A751) of the reaction solution for light at wavelengths of 694 nm and 751 nm was measured over time for 10 minutes after the mixing of the sample with the first reagent-C to determine the value of subtraction of A751 from A694, i.e., the value A694/751. Subsequently, ΔA was calculated by subtracting, from A694/751, the value of (104/128) times A694/751 4.8 minutes after the mixing of the sample with the first reagent-C. Incidentally, 4.8 minutes after the mixing of the sample with the first reagent-C represents the time immediately before the addition of the second reagent-E. ΔA 9 minutes and 10 minutes after the mixing of the diluted sample with the first reagent-C (ΔA9min and ΔA10min) are shown in Table 5.
In other words, it can be recognized that the quantitative reaction of fructosyl valine, i.e., the quantitative reaction of hydrogen peroxide resulting from the oxidation of fructosyl valine, was completed in 10 minutes after the mixing of the diluted sample with the first reagent-C. Accordingly, in Examples 8 and 9, ΔA10min in each Comparative Example or the present invention was defined as ΔA when 100% of the quantitative reaction of HbA1c progressed under each condition (ΔA100%).

Row | Compound | ΔA9 min | ΔA10 min
1 | COc1cc(N=Nc2ccc(N)cc2)c(C)cc1N [Disperse Diazo Black 3BF] | 0.062 | 0.061
2 | O=C([O-])c1cc(N=Nc2cccc([N+](=O)[O-])c2)ccc1O.[Na+] [Alizarin Yellow GG] | 0.044 | 0.046
3 | O=C(O)c1cc(N=Nc2ccc3cc(S(=O)(=O)O)ccc3c2)ccc1O.[Na] [Chrome Yellow] | 0.066 | 0.067
4 | O=C([O-])c1cc(N=Nc2ccc([N+](=O)[O-])cc2)ccc1O.[Na+] [Mordant Orange 1] | 0.049 | 0.051

Source: US11384381B2, “Reaction accelerating agent” (Kikkoman Corporation, priority 2016, dated 2022)
